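The compound was tested at five concentrations on cells cultured in 96-well plates, with a 48-hour exposure period. Abbreviation: GI50, concentration required for 50% inhibition of growth.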 Active and inactive are the calls of the source. No stated cut-off is given here; in the data, active = GI50 up to about 1.1 µM and inactive = higher.
Legend:
Assay in all cases: NCI tumour cell line growth inhibition, 48 h
HT-29 = test system: HT-29
DU-145 = test system: DU-145
U-251 = test system: U-251
NCI-H460 = test system: NCI-H460
HOP-62 = test system: HOP-62
786-0 = test system: 786-0
CCRF-CEM = test system: CCRF-CEM
A498 = test system: A498
KM12 = test system: KM12
HOP-92 = test system: HOP-92
PC-3 = test system: PC-3
MDA-MB-435 = test system: MDA-MB-435
LOX IMVI = test system: LOX IMVI
RXF 393 = test system: RXF 393
MCF7 = test system: MCF7
SF-295 = test system: SF-295
SR = test system: SR
UO-31 = test system: UO-31
OVCAR-4 = test system: OVCAR-4
SK-OV-3 = test system: SK-OV-3
SK-MEL-5 = test system: SK-MEL-5
BT-549 = test system: BT-549
CAKI-1 = test system: CAKI-1
TK-10 = test system: TK-10
UACC-257 = test system: UACC-257
MOLT-4 = test system: MOLT-4
SN12C = test system: SN12C
MDA-N = test system: MDA-N
SF-539 = test system: SF-539
T47D = test system: T47D
K562 = test system: K562
OVCAR-3 = test system: OVCAR-3
MDA-MB-231 = test system: MDA-MB-231
ACHN = test system: ACHN
SW-620 = test system: SW-620
A549 = test system: A549
NCI/ADR-RES = test system: NCI/ADR-RES
SNB-19 = test system: SNB-19
HCT-15 = test system: HCT-15
EKVX = test system: EKVX
RPMI-8226 = test system: RPMI-8226
SNB-75 = test system: SNB-75
HL-60 = test system: HL-60
SK-MEL-2 = test system: SK-MEL-2
SK-MEL-28 = test system: SK-MEL-28
OVCAR-5 = test system: OVCAR-5
OVCAR-8 = test system: OVCAR-8
HCT-116 = test system: HCT-116
UACC-62 = test system: UACC-62
Hs-578T = test system: Hs-578T
NCI-H226 = test system: NCI-H226
IGROV-1 = test system: IGROV-1
COLO 205 = test system: COLO 205
SF-268 = test system: SF-268
Malme-3M = test system: Malme-3M
M14 = test system: M14
NCI-H23 = test system: NCI-H23
NCI-H522 = test system: NCI-H522

With `CC(=S)NC1C(Oc2ccc3c(C)cc(=O)oc3c2)OC(CO)C(O)C1O` (stereo not drawn) the GI50 (HT-29) was > 100 µM (inactive), the GI50 (DU-145) was > 100 µM (inactive) and the GI50 (U-251) was > 100 µM (inactive). For the same compound, the GI50 (NCI-H460) was > 100 µM (inactive), the GI50 (HOP-62) was > 100 µM (inactive) and the GI50 (786-0) was > 10 µM (inactive). For the same compound, the GI50 (CCRF-CEM) was > 100 µM (inactive), the GI50 (A498) was > 100 µM (inactive) and the GI50 (KM12) was > 100 µM (inactive). For the same compound, the GI50 (HOP-92) was > 100 µM (inactive), the GI50 (PC-3) was > 100 µM (inactive) and the GI50 (MDA-MB-435) was > 100 µM (inactive). For the same compound, the GI50 (LOX IMVI) was > 100 µM (inactive), the GI50 (RXF 393) was > 100 µM (inactive) and the GI50 (MCF7) was > 100 µM (inactive). For the same compound, the GI50 (SF-295) was > 100 µM (inactive), the GI50 (SR) was > 100 µM (inactive) and the GI50 (UO-31) was > 100 µM (inactive). For the same compound, the GI50 (OVCAR-4) was > 100 µM (inactive), the GI50 (SK-OV-3) was > 100 µM (inactive) and the GI50 (SK-MEL-5) was > 100 µM (inactive). The GI50 (BT-549) was > 100 µM (inactive), the GI50 (CAKI-1) was > 100 µM (inactive) and the GI50 (TK-10) was > 100 µM (inactive). For the same compound, the GI50 (UACC-257) was > 100 µM (inactive), the GI50 (MOLT-4) was > 100 µM (inactive) and the GI50 (SN12C) was > 100 µM (inactive). For the same compound, the GI50 (MDA-N) was > 100 µM (inactive), the GI50 (SF-539) was > 100 µM (inactive) and the GI50 (T47D) was > 100 µM (inactive). The GI50 (K562) was > 100 µM (inactive), the GI50 (OVCAR-3) was > 100 µM (inactive) and the GI50 (MDA-MB-231) was > 100 µM (inactive). For the same compound, the GI50 (ACHN) was > 100 µM (inactive), the GI50 (SW-620) was > 100 µM (inactive) and the GI50 (A549) was > 100 µM (inactive). For the same compound, the GI50 (NCI/ADR-RES) was > 100 µM (inactive), the GI50 (SNB-19) was > 100 µM (inactive) and the GI50 (HCT-15) was greater than 100 µM. The GI50 (EKVX) was > 100 µM (inactive), the GI50 (RPMI-8226) was > 100 µM (inactive) and the GI50 (SNB-75) was > 100 µM (inactive). For the same compound, the GI50 (HL-60) was > 100 µM (inactive), the GI50 (SK-MEL-2) was > 100 µM (inactive) and the GI50 (SK-MEL-28) was > 100 µM (inactive). For the same compound, the GI50 (OVCAR-5) was > 100 µM (inactive), the GI50 (OVCAR-8) was > 100 µM (inactive) and the GI50 (HCT-116) was > 100 µM (inactive). The GI50 (UACC-62) was > 100 µM (inactive), the GI50 (Hs-578T) was > 100 µM (inactive) and the GI50 (NCI-H226) was > 100 µM (inactive). The GI50 (IGROV-1) was > 100 µM (inactive).

`O=C1c2cscc2C(=O)C1(O)O` was tested, and the GI50 (HT-29) was 70 µM (inactive), the GI50 (DU-145) was > 100 µM (inactive) and the GI50 (U-251) was > 100 µM (inactive). For the same compound, the GI50 (NCI-H460) was > 100 µM (inactive), the GI50 (HOP-62) was > 100 µM (inactive) and the GI50 (786-0) was 61.5 µM (inactive). For the same compound, the GI50 (CCRF-CEM) was 23.7 µM (inactive), the GI50 (A498) was > 100 µM (inactive) and the GI50 (KM12) was > 100 µM (inactive). For the same compound, the GI50 (HOP-92) was 31.7 µM (inactive), the GI50 (PC-3) was 78 µM (inactive) and the GI50 (MDA-MB-435) was 32.6 µM (inactive). The GI50 (LOX IMVI) was > 100 µM (inactive), the GI50 (MCF7) was > 100 µM (inactive) and the GI50 (SF-295) was > 100 µM (inactive). For the same compound, the GI50 (SR) was 19.1 µM (inactive), the GI50 (UO-31) was 27.3 µM (inactive) and the GI50 (OVCAR-4) was 25.6 µM (inactive). The GI50 (SK-OV-3) was > 100 µM (inactive), the GI50 (SK-MEL-5) was > 100 µM (inactive) and the GI50 (BT-549) was 31.5 µM (inactive). For the same compound, the GI50 (COLO 205) was 19.2 µM (inactive), the GI50 (SF-268) was > 100 µM (inactive) and the GI50 (CAKI-1) was 30.8 µM (inactive). For the same compound, the GI50 (TK-10) was > 100 µM (inactive), the GI50 (Malme-3M) was 23.4 µM (inactive) and the GI50 (UACC-257) was 24.9 µM (inactive). The GI50 (MOLT-4) was 22.5 µM (inactive), the GI50 (SN12C) was 20 µM (inactive) and the GI50 (MDA-N) was 40.4 µM (inactive). For the same compound, the GI50 (SF-539) was > 100 µM (inactive), the GI50 (T47D) was 18.6 µM (inactive) and the GI50 (M14) was 22.2 µM (inactive). The GI50 (K562) was 33 µM (inactive), the GI50 (OVCAR-3) was 25.2 µM (inactive) and the GI50 (MDA-MB-231) was 74.1 µM (inactive). For the same compound, the GI50 (ACHN) was > 100 µM (inactive), the GI50 (SW-620) was 20.4 µM (inactive) and the GI50 (A549) was > 100 µM (inactive). For the same compound, the GI50 (NCI/ADR-RES) was > 100 µM (inactive), the GI50 (SNB-19) was > 100 µM (inactive) and the GI50 (HCT-15) was 45.8 µM. The GI50 (EKVX) was 36.1 µM (inactive), the GI50 (RPMI-8226) was 45 µM (inactive) and the GI50 (NCI-H23) was 22.1 µM (inactive). For the same compound, the GI50 (HL-60) was 26.1 µM (inactive), the GI50 (NCI-H522) was 18.7 µM (inactive) and the GI50 (SK-MEL-2) was > 100 µM (inactive). The GI50 (SK-MEL-28) was > 100 µM (inactive), the GI50 (OVCAR-5) was > 100 µM (inactive) and the GI50 (OVCAR-8) was 32.9 µM (inactive). The GI50 (HCT-116) was 21.3 µM (inactive), the GI50 (UACC-62) was > 100 µM (inactive) and the GI50 (Hs-578T) was > 100 µM (inactive). For the same compound, the GI50 (NCI-H226) was > 100 µM (inactive) and the GI50 (IGROV-1) was > 100 µM (inactive).
